Measurements taken from patent publication US20070167353A1, “PRODRUG COMPOSITION” (priority 2003, published 2007).
Where two headings read alike, the source gives them in different places.

Legend:
physchem [1] = details: buffer, pH 7.4
in vitro [2] = details: human, Caco-2, pH 7.4
in vitro [3] = details: human, plasma
HPEPT1 [4] = target: T1, HPEPT1 (Homo sapiens, UniProt P46059); assay: Inhibition of radiolabelled Gly-Sar uptake in DC5 cells overexpressing HPEPT1; format: cell-based; design: expressed in transfected cells; host or cells: HeLa cells overexpressing hPEPT1 (called 'HPEPT1 infected cells')
T1 sequence (P46059 1-708): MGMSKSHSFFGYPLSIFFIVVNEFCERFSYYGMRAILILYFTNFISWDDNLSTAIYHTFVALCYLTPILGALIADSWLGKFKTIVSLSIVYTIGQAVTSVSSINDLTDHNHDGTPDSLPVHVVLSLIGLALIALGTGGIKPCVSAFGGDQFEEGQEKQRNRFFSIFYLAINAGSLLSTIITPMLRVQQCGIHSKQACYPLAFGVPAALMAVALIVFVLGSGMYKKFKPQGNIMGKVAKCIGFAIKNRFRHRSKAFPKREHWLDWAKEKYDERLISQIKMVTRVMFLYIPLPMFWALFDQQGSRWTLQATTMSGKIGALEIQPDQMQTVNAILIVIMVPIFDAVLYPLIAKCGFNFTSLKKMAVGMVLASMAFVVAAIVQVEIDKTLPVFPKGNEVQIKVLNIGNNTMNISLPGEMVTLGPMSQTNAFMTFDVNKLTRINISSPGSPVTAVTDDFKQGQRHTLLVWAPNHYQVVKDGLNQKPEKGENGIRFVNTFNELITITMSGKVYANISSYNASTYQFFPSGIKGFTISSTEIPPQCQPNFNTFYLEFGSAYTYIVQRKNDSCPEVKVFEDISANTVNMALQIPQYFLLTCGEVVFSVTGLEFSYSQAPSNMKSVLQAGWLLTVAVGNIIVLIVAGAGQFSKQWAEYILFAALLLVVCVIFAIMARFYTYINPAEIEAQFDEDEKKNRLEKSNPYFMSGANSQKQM
Protocol: Amino acid prodrugs are tested for their interaction with the dipeptide transporter, HPEPT1, using tissue culture cells that are engineered to overexpress HPEPT1. In this example, the cells that overexpress HPEPT1, termed DC5, are a human meduloblastoma cell line that is stably transfected with a eukaryotic expression vector encoding HPEPT1. […] DC5 cells are plated at a density of 12,000 cells/well in 96-well tissue culture plates and allowed to grow for 2 days. The cells are washed once with 200 microliters of uptake buffer and aspirated. The plates are cooled to 4° C. and 25 ul of uptake buffer containing 125 nanomoles Gly-Sar (at a specific activity of 1 microcurie/micromole) is added. The uptake buffer also contains the prodrugs to be tested at concentrations ranging from 10 micromolar to 20 millimolar. The assay is initiated by placing the plate in a shaking water bath at 37° C. and is terminated after 10 min by rapid washing with multiple changes of 4° C. phosphate buffered saline (PBS). The radioactive Gly-Sar peptide that is transported by the hpept1 is extracted from the cell layer with 200 ul of a one to one mixture of methanol and water and is counted in 4 ml of CytoScint ES™ scintillation cocktail (ICN). The data are plotted as % Gly-Sar uptake of control (no competitive substrate) versus the competitive substrate concentration. […] Typically, values that are below 10 mM indicate that the drug interacts with transporter.

HPEPT1 [5] = target: T1, HPEPT1; details: human, pH 6
in vitro [6] = details: human, Caco-2
HeLa cells [7] = details: 1 mM prodrug, pH 6.0, 45 minutes
physchem [8] = details: buffer, pH 7.4; remark: listed apart in the source
[9] = target: T2, human dipeptide transporter, hPept1 (Homo sapiens, UniProt P46059); details: human, pH 6
T2 sequence (P46059 1-708): T1 sequence (P46059 1-708)

[10] = Hydrolysis of gemcitabine prodrugs in phosphate buffer pH 7.4
HeLa cells [11] = details: control cultures not overexpressing hpept1, 50 micromolar, pH 6.0, 45 minutes
[12] = target: T3, biphenyl hydrolase-like enzyme (BPHL) (Homo sapiens, UniProt Q86WA6); format: biochemical
T3 sequence (Q86WA6 38-291): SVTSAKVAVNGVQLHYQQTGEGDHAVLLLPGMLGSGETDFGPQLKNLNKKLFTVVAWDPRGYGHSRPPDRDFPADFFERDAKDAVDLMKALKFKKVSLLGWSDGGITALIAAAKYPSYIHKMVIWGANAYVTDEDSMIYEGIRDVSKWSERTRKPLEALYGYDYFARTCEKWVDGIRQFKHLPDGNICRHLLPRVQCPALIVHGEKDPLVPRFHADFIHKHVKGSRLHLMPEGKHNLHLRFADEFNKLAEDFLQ

Structure (SMILES)	half-life (physchem [1]) [h]	half-life (in vitro [2]) [h]	half-life (in vitro [3]) [h]	IC50 (HPEPT1 [4]; inhibition of Gly-Sar uptake, DC5 cells overexpressing HPEPT1, 10 min, 37° C., read-out: DC5 IC50) [µM]	Uptake (hPepT1) (HPEPT1 [5]) [nmole/mg/45 min]	hPepT1/Control (HPEPT1 [5])	half-life (in vitro [6]) [h]	HeLa control uptake (HeLa cells [7]) [nmol/mg/45 min]	half-life (physchem [8]) [h]	HeLa/hPEPT1 uptake [9]	hPepT1/Control [9]	half-life [10] [h]	Uptake Control (HeLa cells [11]) [nmole/mg/45 min]	IC50 (HPEPT1 [4]) [µM]	% of Control (VACV) [12] [%]
CC(C)[C@H](N)C(=O)OCC(CO)OCn1cnc2c(=O)nc(N)[nH]c21 (some centres unmarked) [Valganciclovir]	16.5 ± 0.24	0.545 ± 0.0117	5.05 ± 0.3	5230	–	–	–	–	–	–	–	–	–	–	–
CC(C)[C@H](N)C(=O)OCCOCn1cnc2c(=O)[nH]c(N)nc21 [Valacyclovir]	–	0.462 ± 0.01	5.2 ± 0.41	–	2.51 ± 0.28	4.25	0.545 ± 0.0117	11.6 ± 0.5	16.5 ± 0.24	221.2 ± 8.1	19.0	17.1 ± 0.19	0.59 ± 0.06	423	100.0
